Results from patent US4554287A, “Antihypertensive 7-[2-(dialkylamino)ethyl]-4-hydroxy-1,3-benzimidazol-2-ones” (Smithkline Beckman Corporation, priority 1984, dated 1985).
Like-named read-outs stand apart in the source and are kept apart here.

Assays:
D2 -receptors [1] = biological target: T1, D2 -receptors (Oryctolagus cuniculus, UniProt G1T1Q0); experiment: perfused rabbit ear artery test for D2-agonist activity
T1 construct: perfused rabbit ear artery test; from tissue; host or cells: perfused rabbit ear artery (sympathetic nerve terminals)
T1 sequence (G1T1Q0 1-443): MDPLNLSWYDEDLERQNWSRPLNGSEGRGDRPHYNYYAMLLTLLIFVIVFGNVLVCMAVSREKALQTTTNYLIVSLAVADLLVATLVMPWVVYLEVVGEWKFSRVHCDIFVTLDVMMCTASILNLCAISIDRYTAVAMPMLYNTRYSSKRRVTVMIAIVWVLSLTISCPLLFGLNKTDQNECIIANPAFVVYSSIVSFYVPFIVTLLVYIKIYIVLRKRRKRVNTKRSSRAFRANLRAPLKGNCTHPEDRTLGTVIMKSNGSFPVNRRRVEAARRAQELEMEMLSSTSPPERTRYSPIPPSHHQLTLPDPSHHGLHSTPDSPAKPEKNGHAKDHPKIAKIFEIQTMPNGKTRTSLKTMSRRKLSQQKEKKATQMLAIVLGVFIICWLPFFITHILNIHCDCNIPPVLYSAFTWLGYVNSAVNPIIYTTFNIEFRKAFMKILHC
Text: In the perfused rabbit ear artery test for D2 -agonist activity [J. P. Hieble et al., Arch.

D2 -receptors [2] = experiment: D2-agonist activity (test not specified); conditions: presynaptic dopaminergic receptors on sympathetic nerve terminals
Text: Otherwise speaking, the main locus of action is at the presynaptic dopaminergic receptors or sympathetic nerve terminals which may also be called "D2 -receptors." Activation of the D2 -receptors on the sympathetic nerve terminals inhibits the release of norepinephrine, thereby inhibiting the increases in cardiac rate and the peripheral vasoconstriction resulting from stimulation of the sympathetic nervous system. These are beneficial cardiovascular actions in those conditions involving excessive or inappropriate levels of sympathetic nervous system stimulation.

Row | EC50 (D2 -receptors [1]; perfused rabbit ear artery, D2 -agonist activity, read-out: EC50) [nM] | D2 -agonist activity (in words) (D2 -receptors [2]) | Compound | EC50 (D2 -receptors [1]) [nM]
1 |  |  | CCCN(CCC)CCc1ccc(O)c(O)c1 [N,N-di-n-propyldopamine, reference compound] | 50 to 60
2 | ~9 | peripheral D2 -agonists | CCCN(CCC)CCc1ccc(O)c2[nH]c(=O)[nH]c12 [7-[2-(N,N-di-n-propylamino)ethyl]-4-hydroxy-1,3-benzimidazol-2-one] | 
